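In this assay, cells in 96-well plates receive the compound at five concentrations for 48 hours. Endpoints are linearly interpolated between the surrounding concentrations. At the GI50, growth is halved. TGI: total growth inhibition.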
What was measured:
Test in all cases: NCI-60 cell line screen, 48 h
[1] = test system: T-47D breast
[2] = test system: NCI-H522 lung
[3] = test system: RXF 393 renal
[4] = test system: SK-MEL-2 melanoma
[5] = test system: MCF7 breast
[6] = test system: HCT-15 colon
[7] = test system: A549 NSCLC
[8] = test system: HCT-116 colon
[9] = test system: M14 melanoma
[10] = test system: OVCAR-3 ovarian
[11] = test system: IGROV1 ovarian
[12] = test system: NCI-H226 lung
[13] = test system: HS 578T breast
[14] = test system: CAKI-1 renal
[15] = test system: 786-0 renal
[16] = test system: OVCAR-8 ovarian
[17] = test system: MDA-MB-231 breast
[18] = test system: NCI-H23 lung
[19] = test system: ACHN renal
[20] = test system: SNB-19 CNS
[21] = test system: SF-268 CNS
[22] = test system: U251 CNS
[23] = test system: SK-MEL-5 melanoma
[24] = test system: MDA-MB-435
[25] = test system: SF-539 CNS
[26] = test system: NCI-H460 lung
[27] = test system: BT-549 breast
[28] = test system: A498 renal
[29] = test system: NCI/ADR-RES ovarian
[30] = test system: OVCAR-4 ovarian
[31] = test system: LOX IMVI melanoma
[32] = test system: SNB-75 CNS
[33] = test system: SK-OV-3 ovarian
[34] = test system: RPMI-8226 leukemia
[35] = test system: HT29 colon
[36] = test system: UACC-62 melanoma
[37] = test system: TK-10 renal
[38] = test system: SW-620 colon
[39] = test system: MOLT-4 leukemia
[40] = test system: DU-145 prostate
[41] = test system: OVCAR-5 ovarian
[42] = test system: HL-60(TB) leukemia
[43] = test system: HOP-62 NSCLC
[44] = test system: EKVX NSCLC
[45] = test system: UACC-257 melanoma
[46] = test system: SR leukemia
[47] = test system: UO-31 renal
[48] = test system: PC-3 prostate
[49] = test system: SN12C renal
[50] = test system: KM12 colon
[51] = test system: SK-MEL-28 melanoma
[52] = test system: SF-295 CNS
[53] = test system: K-562 leukemia
[54] = test system: COLO 205 colon
[55] = test system: CCRF-CEM leukemia
[56] = test system: MALME-3M melanoma
[57] = test system: HOP-92 NSCLC
[58] = test system: HCC-2998 colon

Work on `NCCCCCn1c2c(c3ccccc3c1=O)C(=O)c1ccccc1-2` yielded a GI50 [1] of 451 nM, a TGI [1] of 2140 nM and a GI50 [2] of 215 nM. For the same molecule, the TGI [2] was 1690 nM, the GI50 [3] was 2830 nM and the TGI [3] was greater than 26300 nM. It also gave a GI50 [4] of 1410 nM, a TGI [4] of 2960 nM and a GI50 [5] of 69.6 nM. It also gave a TGI [5] of 3490 nM, a GI50 [6] of 163 nM and a TGI [6] of 2340 nM. For the same molecule, the GI50 [7] was 452 nM, the GI50 [8] was 151 nM and the TGI [8] was 3910 nM. It also gave a GI50 [9] of 1410 nM, a TGI [9] of 3220 nM and a GI50 [10] of 1100 nM. For the same molecule, the TGI [10] was 6740 nM, the GI50 [11] was 241 nM and the TGI [11] was 2750 nM. For the same molecule, the GI50 [12] was 479 nM, the TGI [12] was 2160 nM and the GI50 [13] was 1770 nM. The TGI [13] was 12900 nM, the GI50 [14] was 749 nM and the TGI [14] was 14000 nM. The GI50 [15] was 274 nM, the TGI [15] was 2010 nM and the GI50 [16] was 497 nM. For the same molecule, the TGI [16] was 10500 nM, the GI50 [17] was 1760 nM and the TGI [17] was 6090 nM. The GI50 [18] was 314 nM, the TGI [18] was 1470 nM and the GI50 [19] was 190 nM. It also gave a TGI [19] of 909 nM, a GI50 [20] of 465 nM and a TGI [20] of 7660 nM. For the same molecule, the GI50 [21] was 321 nM, the TGI [21] was 3060 nM and the GI50 [22] was 232 nM. It also gave a TGI [22] of 4110 nM, a GI50 [23] of 617 nM and a TGI [23] of 2050 nM. For the same molecule, the GI50 [24] was 1360 nM, the TGI [24] was 3620 nM and the GI50 [25] was 864 nM. It also gave a TGI [25] of 2480 nM, a GI50 [26] of 53.7 nM and a TGI [26] of 1020 nM. It also gave a GI50 [27] of 1570 nM, a TGI [27] of 4600 nM and a GI50 [28] of 1430 nM. It also gave a TGI [28] of 4070 nM, a GI50 [29] of 1410 nM and a TGI [29] of 4860 nM. The GI50 [30] was 1540 nM, the TGI [30] was 5580 nM and the GI50 [31] was 221 nM. It also gave a TGI [31] of 1760 nM, a GI50 [32] of 1200 nM and a TGI [32] of 6920 nM. For the same molecule, the GI50 [33] was 531 nM, the TGI [33] was 2160 nM and the GI50 [34] was 222 nM. For the same molecule, the TGI [34] was 1510 nM, the GI50 [35] was 246 nM and the TGI [35] was 4660 nM. It also gave a GI50 [36] of 1420 nM, a TGI [36] of 3370 nM and a GI50 [37] of 714 nM. The TGI [37] was 7080 nM, the GI50 [38] was 166 nM and the TGI [38] was 4090 nM. The GI50 [39] was 28.5 nM, the TGI [39] was 1740 nM and the GI50 [40] was 266 nM. It also gave a GI50 [41] of 999 nM, a TGI [41] of 3840 nM and a GI50 [42] of 159 nM. For the same molecule, the TGI [42] was 744 nM, the GI50 [43] was 221 nM and the TGI [43] was 2190 nM. For the same molecule, the GI50 [44] was 4080 nM, the TGI [44] was 17100 nM and the GI50 [45] was 2000 nM. The TGI [45] was 4700 nM, the GI50 [46] was 35 nM and the TGI [46] was 726 nM. It also gave a GI50 [47] of 238 nM, a TGI [47] of 1530 nM and a GI50 [48] of 1230 nM. It also gave a TGI [48] of 5370 nM, a GI50 [49] of 305 nM and a TGI [49] of 3970 nM. It also gave a GI50 [50] of 284 nM, a TGI [50] of 2480 nM and a GI50 [51] of 1460 nM. It also gave a TGI [51] of 3160 nM, a GI50 [52] of 527 nM and a TGI [52] of 6380 nM. The GI50 [53] was 195 nM, the TGI [53] was 2470 nM and the GI50 [54] was 639 nM. It also gave a TGI [54] of 3270 nM, a GI50 [55] of 106 nM and a TGI [55] of 1160 nM. It also gave a GI50 [56] of 1130 nM, a TGI [56] of 3170 nM and a GI50 [57] of 435 nM. The TGI [57] was 3720 nM, the GI50 [58] was 529 nM and the TGI [58] was 2630 nM.

Source: PubChem BioAssay (NCI)
